Laboratory results as given in the supplement of paper PMC10627819.

What was measured:
S. pneumoniae D39V [1] = assay: fitness (endpoint OD595 vs no drug) (fraction); higher = more growth
In short: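 With the first reading as background, OD595 was measured every 30 min for 14 h in 384-well plates kept at 37 °C and inoculated at OD595 0.01. TSB, LB Lennox or CY was the medium. Fitness is the optical density at the transition into stationary phase divided by the robust mean of no-drug control wells, with a cap of 1.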

S. aureus Newman = assay: Bliss interaction score (quartile over a dose matrix) (fitness difference); higher = more antagonism (negative = synergy)
In short: (§1)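 The Bliss score was calculated by subtracting the expected fitness, the product of single-drug values, from the observed fitness. OD595 at entry into stationary phase, over the plate's robust no-drug mean and capped at 1, served as the fitness readout. Single-drug values were inferred from combination data, and scores are summarised by quartiles across technical, biological and donor/recipient replicates.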

S. pneumoniae D39V [2] = assay: as above
In short: as §1

B. subtilis 168 = assay: as above
In short: as §1

S. aureus DSM 20231 = assay: as above
In short: as §1
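For Bliss interaction score (quartile over a dose matrix) in this document: first quartile when negative (synergy) and third quartile when positive (antagonism).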

C[C@@H](O)[C@H]1C(=O)N2C(C(=O)O)=C(SCCNC=N)C[C@H]12 [Imipenem] + CO[C@H]1/C=C/O[C@@]2(C)Oc3c(C)c(O)c4c(O)c(c(/C=N/N5CCN(C)CC5)c(O)c4c3C2=O)NC(=O)/C(C)=C\C=C\[C@H](C)[C@H](O)[C@@H](C)[C@@H](O)[C@@H](C)[C@H](OC(C)=O)[C@@H]1C [Rifampicin]
fitness, S. pneumoniae D39V [1], one replicate
Conditions | first compound 0.005 µg/mL | first compound 0.01 µg/mL | first compound 0.02 µg/mL
partner 0.025 µg/mL | 0.856 | 0.81 | 0.816
partner 0.2 µg/mL | 0 | 0 | 0

fitness, S. pneumoniae D39V [1]
Conditions | first compound 0.0065 µg/mL | first compound 0.013 µg/mL | first compound 0.02 µg/mL | first compound 0.026 µg/mL
partner 0.05 µg/mL | 0.678 | 0.721 | 0.726 | 0.695
partner 0.1 µg/mL | 0.402 | – | – | 0.361
partner 0.2 µg/mL | 0.254 | – | – | –

Conditions | Bliss interaction score
B. subtilis 168 | 0.0636
S. aureus DSM 20231 | 0.0391
S. aureus Newman | 0.0149
S. pneumoniae D39V [2] | -0.106

C[C@@H](O)[C@H]1C(=O)N2C(C(=O)O)=C(SCCNC=N)C[C@H]12 [Imipenem] + CCC(C)C1C(=O)NC(=C)C(=O)NC(C(=O)NC(CSCC(C(=O)N1)NC(=O)/C(=C/C)/NC(=O)C(C(C)CC)N)C(=O)NC2C(SCC(NC(=O)CNC(=O)C3CCCN3C2=O)C(=O)NC(CCCCN)C(=O)NC4C(SCC(NC(=O)CNC(=O)C(NC(=O)C(NC(=O)C(NC(=O)CNC4=O)C)CC(C)C)CCSC)C(=O)NC(CC(=O)N)C(=O)NC(CCSC)C(=O)NC(CCCCN)C(=O)NC5C(SCC6C(=O)NC(C(=O)NC(CSC(C(C(=O)N6)NC(=O)C(NC5=O)C)C)C(=O)NC(CO)C(=O)NC(C(C)CC)C(=O)NC(CC7=CN=CN7)C(=O)NC(C(C)C)C(=O)NC(=C)C(=O)NC(CCCCN)C(=O)O)CC8=CN=CN8)C)C)C)CC(C)C [Nisin]
fitness, S. pneumoniae D39V [1], main component drawn
Conditions | first compound 0.005 µg/mL | first compound 0.0065 µg/mL | first compound 0.01 µg/mL | first compound 0.013 µg/mL | first compound 0.02 µg/mL | first compound 0.026 µg/mL
partner 0.4275 µg/mL | ≥ 1 | – | 0.988 | – | ≥ 1 | –
partner 0.855 µg/mL | 0.992 | – | 0.993 | – | ≥ 1 | –
partner 1.6 µg/mL | – | 0 | – | 0.193 | – | 0.448
partner 1.71 µg/mL | 0.133 | – | 0.0676 | – | 0.0904 | –
partner 3.2 µg/mL | – | 0 | – | 0.0047 | – | 0.0017
partner 6.4 µg/mL | – | 0 | – | 0.0067 | – | 0

main component drawn
Conditions | Bliss interaction score
B. subtilis 168 | -0.0431
S. aureus DSM 20231 | 0.0486
S. aureus Newman | -0.0142
S. pneumoniae D39V [2] | -0.0573

CC[C@H]1OC(=O)[C@H](C)[C@@H](O[C@H]2C[C@@](C)(OC)[C@@H](O)[C@H](C)O2)[C@H](C)[C@@H](O[C@@H]2O[C@H](C)C[C@H](N(C)C)[C@H]2O)[C@](C)(OC)C[C@@H](C)C(=O)[C@H](C)[C@@H](O)[C@]1(C)O [Clarithromycin] + CN[C@@H]1[C@H](O[C@H]2[C@H](O[C@H]3[C@H](O)[C@@H](O)[C@H](N=C(N)N)[C@@H](O)[C@@H]3N=C(N)N)O[C@@H](C)[C@]2(O)C=O)O[C@@H](CO)[C@H](O)[C@H]1O [Streptomycin]
fitness, S. pneumoniae D39V [1], one replicate
Conditions | first compound 0.007812 µg/mL | first compound 0.01562 µg/mL | first compound 0.03125 µg/mL | first compound 0.0625 µg/mL | first compound 0.125 µg/mL | first compound 0.25 µg/mL
partner 2 µg/mL | 0.857 | 0.802 | 0.663 | 0.68 | 0.318 | 0.129
partner 4 µg/mL | 0.866 | 0.799 | 0.694 | – | – | –
partner 8 µg/mL | 0.845 | 0.793 | 0.651 | – | – | –
partner 16 µg/mL | – | – | – | 0.478 | 0.184 | 0.0864

fitness, S. pneumoniae D39V [1]
Conditions | first compound 0.0625 µg/mL | first compound 0.07 µg/mL | first compound 0.125 µg/mL | first compound 0.14 µg/mL | first compound 0.25 µg/mL | first compound 0.28 µg/mL
partner 2 µg/mL | – | 0.117 | – | 0.0741 | – | 0.0426
partner 4 µg/mL | 0.623 | 0.103 | 0.3 | 0.0646 | 0.142 | 0.0455
partner 8 µg/mL | 0.594 | 0.154 | 0.312 | 0.0691 | 0.107 | 0.0723

Conditions | Bliss interaction score
B. subtilis 168 | 0.0553
S. aureus DSM 20231 | 0.0696
S. aureus Newman | -0.0521
S. pneumoniae D39V [2] | -0.0538

CC[C@H]1OC(=O)[C@H](C)[C@@H](O[C@H]2C[C@@](C)(OC)[C@@H](O)[C@H](C)O2)[C@H](C)[C@@H](O[C@@H]2O[C@H](C)C[C@H](N(C)C)[C@H]2O)[C@](C)(OC)C[C@@H](C)C(=O)[C@H](C)[C@@H](O)[C@]1(C)O [Clarithromycin] + CO[C@H]1/C=C/O[C@@]2(C)Oc3c(C)c(O)c4c(O)c(c(/C=N/N5CCN(C)CC5)c(O)c4c3C2=O)NC(=O)/C(C)=C\C=C\[C@H](C)[C@H](O)[C@@H](C)[C@@H](O)[C@@H](C)[C@H](OC(C)=O)[C@@H]1C [Rifampicin]
fitness, S. pneumoniae D39V [1], one replicate
Conditions | first compound 0.007812 µg/mL | first compound 0.01562 µg/mL | first compound 0.03125 µg/mL | first compound 0.0625 µg/mL | first compound 0.125 µg/mL | first compound 0.25 µg/mL
partner 0.025 µg/mL | – | – | – | 0.395 | 0.245 | 0.155
partner 0.05 µg/mL | 0.647 | 0.466 | 0.293 | – | – | –
partner 0.1 µg/mL | 0.262 | 0.213 | 0.219 | – | – | –
partner 0.2 µg/mL | 0.122 | 0.15 | 0.196 | 0 | 0 | 0

fitness, S. pneumoniae D39V [1]
Conditions | first compound 0.0625 µg/mL | first compound 0.07 µg/mL | first compound 0.125 µg/mL | first compound 0.14 µg/mL | first compound 0.25 µg/mL | first compound 0.28 µg/mL
partner 0.025 µg/mL | – | 0.161 | – | 0.109 | – | 0.121
partner 0.05 µg/mL | 0.362 | 0.17 | 0.215 | 0.164 | 0.108 | 0.102
partner 0.1 µg/mL | 0.177 | 0.118 | 0.119 | 0.0954 | 0.114 | 0.138

Conditions | Bliss interaction score
B. subtilis 168 | 0.0788
S. aureus DSM 20231 | 0.0272
S. aureus Newman | 0.0434
S. pneumoniae D39V [2] | 0.0654
